Entries after “also recorded” stand apart in the source; their conditions may differ.
Tested on: mutant strains of Saccharomyces cereviseae (gene rad9)
Assay: Bioassay on solid mediums with Securolide on mutant strains of Saccharomyces cereviseae
Assay type: cell-based
Details: concentration between ten and one hundred micrograms/milliliter, set of mutant strains, specifically the gene rad9
Procedure: Bioassays on solid mediums were performed with Securolide (LMSV-6) in a concentration between ten and one hundred micrograms/milliliter on a set of mutant strains of Saccharomyces cereviseae with DNA similar to that in tumor/cancer cells.

In the case of `C=C1CCOC1=O` [Securolide], the cytoxic activity is reported as “cell death of Rad9 mutant yeast strains; also recorded: marked cytoxic activity only on the mutant strains”.

Reference: patent US8501431B2, “Method for screening for compounds selectively interacting with RAD9” (Magnachem International Laboratories, Inc., priority 2008, dated 2013)
